Data on 14 molecules can be found in patent US20210206820A1 (Purdue Research Foundation, priority 2018, published 2021).

The test system of test [1] is fracture callus of fractured femur. Briefly: Femur fracture model, microCT of the fracture callus (BV/TV, TbTh, BV, TbSp). Format: in vivo, Swiss Webster mice. The settings on record: local injections.
In test [2] the test system is pre-osteoblastic cell line MC3T3-E1. Nature of the test: Alkaline phosphatase (ALP) activity of pre-osteoblastic cells after 7 days exposure. The settings on record: 0.1-5 nM in culture media for 7 days, vs DMSO alone. In kind it is cell-based, mouse.
Test [3] has as its system fracture callus of fractured femur. Nature of the test: Femur fracture model, microCT of the fracture callus (BV/TV, TbTh, BV, TbSp). Format: in vivo, Swiss Webster mice. From the text: All in vivo data included herein are from swiss Webster mice. All mice received an osteotomy on their right femur and received subcutaneous drug administration daily for either 2, 3 or 4 weeks, as indicated, for each compound. 1× concentration represents 1 nmol/day, 10× represents 10 nmol/day, 100× represents 100 nmol/day most studies have an n of 5.
The term “BV/TV” means the bone volume divided by total volume of the 100 thickest micro CT slices of the fracture callus.
The term “TbTh” means the trabecular thickness of the 100 thickest micro CT slices of the fracture callus.
The term “[…]” means the overall bone volume of the 100 thickest micro CT slices of the fracture callus.
The term “TbSp” means the spacing between the trabecula in the 100 thickest micro CT slices of the fracture callus.
(§1) The targeted conjugates were synthesized using standard Fmoc solid-phase peptide synthesis, as described above. To ensure the conjugates' activity, mouse pre-osteoblast ([…]) cells were treated with the targeted and untargeted compounds for three days at concentrations from 1 pM to 100 nM. After three days of treatment, the cells were harvested, and the RNA was purified from the cells. Expression levels of ALP, RUNx2 (transcription factor for osteoblast differentiation), osterix (OSX), osteopontin (OPN), collagen 1A (Col-1A), OPG, RANKL, sclerostin gene (SOST), and OC were quantified via quantitative reverse transcription polymerase chain reaction (RT-qPCR). Once the biological activity of the conjugates was confirmed, they were tested in vivo in a fracture model. Aseptic surgical techniques were used to place a 23-gage needle as in intramedullary nail in the femur of anesthetized, 12-week-old Swiss Webster mice for internal fixation before fracture. Femur fractures were induced using a drop weight fracture device from RISystem. The mice received buprenorphine for three days post fracture. The mice were dosed subcutaneously each day for three weeks or 17 days. Fracture healing was assessed using microCT (Scanco Medical Ag). Morphometric parameters were quantified in the 100 widest slices of the fracture callus. Trabecular thickness (TbTh), trabecular spacing (TbSp), total volume (TV), and volume of calcified callus (BV) were calculated. Fractured femurs were tested for strength in a four-point bend to failure using an Electro Force TestBench (TA Instruments). Lower supports were 10 mm apart on the anterior face of the femur in contact with the proximal and distal diaphysis. Upper supports were 4 mm apart and spanned the entire fracture callus on the diaphysis. Force was applied from the posterior face of the femur with a displacement rate of 0.3 mm/sec. Peak load, yield load, stiffness, displacement post yield, work to fracture, and deformation data were generated. Statistical analysis was performed using a two-way analysis of variance (ANOVA) and a Tukey post-hoc analysis with significance reported at the 95% confidence level. All animal experiments were performed in accordance with protocols approved by Purdue University's Institutional Animal Care and Use Committee (IACUC).

A further test has as its system healed fractured femur. Nature of the test: Postmortem four-point bend of the healed femur (peak/max load, stiffness, work to fracture). In kind it is in vivo, Swiss Webster mice. The settings on record: for Bone strength (Max Load, Work to Fracture): n=5. The protocol:
The term “Peak Load” means a postmortem 4 point bend of the healed femur. Peak load represents the maximum force the healed femur withstood before it refractured.
as §1, with “The mice were dosed subcutaneously each day for three weeks or 17 days.” left out
Referring to FIGS. 26a, 26b, and 26c, in vivo fracture healing efficacy of VIP_mp4_(D)E10 conjugate on Swiss Webster fracture-bearing mice (n=5) after 3 weeks was reflected as BV/TV, Max Load, and Work to Fracture respectively. […]

In another test the target is T1, VPAC-1 (Homo sapiens, UniProt P32241).
T1 sequence (P32241 31-457): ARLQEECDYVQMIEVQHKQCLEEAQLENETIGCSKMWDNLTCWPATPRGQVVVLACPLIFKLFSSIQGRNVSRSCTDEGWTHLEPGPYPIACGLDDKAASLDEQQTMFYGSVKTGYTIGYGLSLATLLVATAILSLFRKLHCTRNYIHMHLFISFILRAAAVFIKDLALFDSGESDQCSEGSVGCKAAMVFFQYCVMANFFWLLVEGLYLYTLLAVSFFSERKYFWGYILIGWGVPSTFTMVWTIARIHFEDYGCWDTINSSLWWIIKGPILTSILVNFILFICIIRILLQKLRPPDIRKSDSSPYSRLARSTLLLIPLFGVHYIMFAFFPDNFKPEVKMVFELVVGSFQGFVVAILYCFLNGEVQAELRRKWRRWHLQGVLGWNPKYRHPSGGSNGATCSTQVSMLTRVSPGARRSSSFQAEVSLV
The settings on record: VIP compared with PACAP; cited from earlier work.

For a further test, the target named is T2, VPAC-2 (Homo sapiens, UniProt P41587).
T2 sequence (P41587 24-438): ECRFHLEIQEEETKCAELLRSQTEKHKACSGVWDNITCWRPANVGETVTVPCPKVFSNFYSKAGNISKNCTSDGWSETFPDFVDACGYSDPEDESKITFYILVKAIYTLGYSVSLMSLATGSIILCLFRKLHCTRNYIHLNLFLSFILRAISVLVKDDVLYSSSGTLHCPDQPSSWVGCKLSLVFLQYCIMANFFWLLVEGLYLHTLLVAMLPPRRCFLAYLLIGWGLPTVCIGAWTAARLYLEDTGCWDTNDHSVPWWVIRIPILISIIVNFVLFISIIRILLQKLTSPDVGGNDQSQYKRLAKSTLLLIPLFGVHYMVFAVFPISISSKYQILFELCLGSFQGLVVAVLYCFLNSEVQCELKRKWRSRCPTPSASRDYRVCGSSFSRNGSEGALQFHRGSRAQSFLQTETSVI
The settings on record: VIP compared with PACAP; cited from earlier work.

Setting [4] is: 2 weeks, daily sc, 1 to 100 nmol/day.
Where [5] appears, read: 3 weeks, 0.1, 1, 10 nmol per day sc, n=5.
Where [6] appears, read: 4 weeks, daily sc, various concentrations from 1 to 100 nmol/day.

Primed or numbered codes have the meaning given here. Where no end group is shown, it is not given here. [ ]: non-standard residue; d: D form. PEG2′ = PEG2 spacer

`Cc1ncc(CO)c(C)c1O` [DOP, 4-deoxypyridoxine]: the Fracture healing entry in test [1] was “acceleration of fracture healing”.

Turning to `CC(C)Oc1ccc(-c2nc(-c3cccc4c3CC[C@@H]4NCCO)no2)cc1C#N` [ozanimod, Ozanimod], the “Alkaline phosphatase (ALP) activity” value in test [2] is “boost”. For the same molecule, the Fracture healing entry in test [1] is on record as “acceleration of fracture healing”.

With “Amylin(1-8)-D10: amino acid 1-8 of native amylin attached to 4 peg2 spacers then ten aspartic acid (KCNTATCA[PEG2′][PEG2′][PEG2′][PEG2′]DDDDDDDDDD; not fully specified (bridges); ends and bridges not checked; UniProt P10997 34-41, looked up, fragment)”, in test [3] (3 weeks, 1, 10, 100 nmol per day sc, n=5), the “Bone density (BV/TV) at the fracture calluses” value is on record as “raises bone density”. The “Bone strength (Max Load, Work to Fracture)” value with healed fractured femur (3 weeks, 1, 10, 100 nmol per day sc) is listed as “improves bone strength”.

As to “BFP-D10: bone forming peptide conjugated with 10 aspartate acids, SEQ ID NO: 1 DDDDDDDDDDGQGFSYPYKAVFSTQ (BFP D10)”, in test [3] (setting [4]), the BV/TV entry is on record as “dose dependent manner” and the TbSp entry was “dose dependent manner”. Also, the “Peak load of fractured femurs, ranking as compared to PBS” value with healed fractured femur (100 nmol/day (100×), after 2 weeks) was “obtained the maximum peak load”.

“CBM D10: collagen binding motif of osteopontin conjugated with 10 aspartate acids”: the BV/TV result in test [3] (3 weeks, 0.1, 1 and 10 nmol/day) is listed as “dose dependent manner”.

Regarding “CGRP (D)E10: full natural 37 amino acid CGRP, cyclized 2-7, C-terminal 4 minipeg spacers and ten D glutamic acids”, in test [3] (setting [5]), the “Bone density (BV/TV) at the fracture calluses” value was “raises bone density” and the “Bone volume (BV)” value is listed as “stimulates more bone to be generated”. In addition, the “Bone strength (Max Load, Work to Fracture)” value in the test with healed fractured femur (3 weeks, 0.1, 1, 10 nmol per day sc) was “raises bone strength”.

In the case of “Ghrelin-D10: Ghrelin D10 with Serine (Ser)-3 replaced with diaminopropinoic acid”, the BV/TV result in test [3] (setting [6]) is “dose dependent manner”.

On to “MGF D10: Mechano-growth factor conjugated with 10 aspartate acids, SEQ ID NO: 11 DDDDDDDDDDYQPPSTNKNTKSQRRKGSTFEEHK (Mechano-growth factor (MGF) D10, an IGF-I fragment)”, for which the BV/TV entry in test [3] (setting [6]) is recorded as “dose dependent manner”.

For “OGP-D10: osteogenic growth peptide conjugated with 10 aspartate acids, SEQ ID NO: 2 DDDDDDDDDDALKRQGRTLYGFGG (OGP D10)”, in test [3] (setting [4]), the BV/TV result was “dose dependent manner”, the TbSp entry was “dose dependent manner” and the TbTh entry is “dose dependent manner”.

For “P4 D10: P4 (knuckle epitope fragment of hBMP-2) conjugated with 10 aspartate acids (HKIPKASSVPTELSAISTLYLDDDDDDDDDD; P4 D10-a BMP2 fragment)”, in test [3] (4 weeks, 1 nmol/day), the “Bone volume (BV)” value was “healing was reflected”. Further, the BV/TV entry in test [3] (setting [6]) was “dose dependent manner”.

For “Pituitary Adenylyl Cyclase Activating Peptide [PACAP]”, the “Affinity for VPAC-1” value with VPAC-1 is given as “equal affinity”. For the same molecule, the “Affinity for VPAC-2” value with VPAC-2 is given as “equal affinity”.

For the molecule “Preptin-D10: Preptin conjugated with 10 aspartate acids, SEQ ID NO: 3 (HDVSTSQAVLPDDFPRYDDDDDDDDDD; Preptin D10)”, the “Bone volume (BV)” value in test [3] (2 weeks, daily sc, 1, 10, 100 nmol/day) is “dose dependent manner”. Moreover, in test [3] (setting [4]), the BV/TV result is recorded as “dose dependent manner” and the TbTh result is recorded as “dose dependent manner”.

On to “pBMP9 D10: 23-residue peptide from the knuckle epitope of human BMP-9 targeted with D10 (CGGKVGKACCVPTKLSPISVLYK[miniPEG][miniPEG][miniPEG][miniPEG]DDDDDDDDDD; cysteine pairing not given here)”, for which the “Bone volume (BV)” value in test [3] (4 weeks, daily sc, 1, 10, 100 nmol/day) is listed as “dose dependent manner”. In addition, the BV/TV result in test [3] (setting [6]) is on record as “dose dependent manner”.

As for “substance P D10: substance P with 4 mini PEG linker and conjugated with 10 aspartate acids (DDDDDDDDDDRPKPQQFFGLM; 4 mini PEG linker; substance P 4 mini PEG D10 with; (10)..(11) 4 mini PEG linker)”, the BV/TV entry in test [3] (setting [6]) is “dose dependent manner”. The “Peak load the healed femur can withstand” value in the test with healed fractured femur (10× (10 nmol/day), 4 weeks) is reported as 30-35 Newtons.
